Tested on: Anopheles stephensi
Assay: Anopheles stephensi treated well plate contact test: knockdown and mortality
Type: in vivo
Conditions: Anopheles stephensi; test compound 0.2 ppm, without TFNA-AM, after 24 hours; read-out: mortality % 24, without TFNA-AM
Method: Examples Anopheles stephensi (Indian Malaria Mosquito)
The individual wells of twelve (12) well tissue culture plates were treated with 200 μl of an ethanol solution containing a test compound of Table 1 or Table 2 at a defined concentration and repeated with also 200 μl of an ethanol solution containing in addition 2 ppm TFNA-AM. Once the deposits were dry, five non-blood fed adult female Anopheles stephensi (between two to five day old) were added to each well, and sustained with a 10% sucrose solution in a cotton wool plug. Assessment of the knockdown after 1 hour, and mortality after 24 and 48 hours was carried out.
In case of multiple tests, the mean value is reported.

| SMILES | mortality at 0.2 ppm |
| --- | --- |
| CN/C(=N\[N+](=O)[O-])NCc1cnc(Cl)s1 [Clothianidin] | 0% |
| CO/C=C(/C(=O)OC)c1ccccc1Oc1nc(C(C)(C)C)ns1 [Compound 48] | 0% |

Same assay, conditions: Anopheles stephensi; test compound 0.2 ppm, without TFNA-AM, after 48 hours; read-out: mortality % 48, without TFNA-AM

| SMILES | mortality at 0.2 ppm |
| --- | --- |
| CN/C(=N\[N+](=O)[O-])NCc1cnc(Cl)s1 [Clothianidin] | 0% |
| CO/C=C(/C(=O)OC)c1ccccc1Oc1nc(C(C)(C)C)ns1 [Compound 48] | 0% |

Same assay, conditions: Anopheles stephensi; test compound 0.2 ppm, without TFNA-AM, knockdown after 1 hour; read-out: Knock Down, without TFNA-AM

| SMILES | pest or weed control at 0.2 ppm |
| --- | --- |
| CN/C(=N\[N+](=O)[O-])NCc1cnc(Cl)s1 [Clothianidin] | 0% |
| CO/C=C(/C(=O)OC)c1ccccc1Oc1nc(C(C)(C)C)ns1 [Compound 48] | 20% |

Same assay, conditions: Anopheles stephensi; test compound 2 ppm, without TFNA-AM, after 24 hours; read-out: mortality % 24, without TFNA-AM

| SMILES | mortality at 2 ppm |
| --- | --- |
| CN/C(=N\[N+](=O)[O-])NCc1cnc(Cl)s1 [Clothianidin] | 0% |
| CO/C=C(/C(=O)OC)c1ccccc1Oc1nc(C(C)(C)C)ns1 [Compound 48] | 100% |

Same assay, conditions: Anopheles stephensi; test compound 2 ppm, without TFNA-AM, after 48 hours; read-out: mortality % 48, without TFNA-AM

| SMILES | mortality at 2 ppm |
| --- | --- |
| CN/C(=N\[N+](=O)[O-])NCc1cnc(Cl)s1 [Clothianidin] | 0% |
| CO/C=C(/C(=O)OC)c1ccccc1Oc1nc(C(C)(C)C)ns1 [Compound 48] | 100% |

Same assay, conditions: Anopheles stephensi; test compound 2 ppm, without TFNA-AM, knockdown after 1 hour; read-out: Knock Down, without TFNA-AM

| SMILES | pest or weed control at 2 ppm |
| --- | --- |
| CN/C(=N\[N+](=O)[O-])NCc1cnc(Cl)s1 [Clothianidin] | 0% |
| CO/C=C(/C(=O)OC)c1ccccc1Oc1nc(C(C)(C)C)ns1 [Compound 48] | 60% |

Same assay, conditions: Anopheles stephensi; test compound 20 ppm, without TFNA-AM, after 24 hours; read-out: mortality % 24, without TFNA-AM

| SMILES | mortality at 20 ppm |
| --- | --- |
| CN/C(=N\[N+](=O)[O-])NCc1cnc(Cl)s1 [Clothianidin] | 0% |
| CO/C=C(/C(=O)OC)c1ccccc1Oc1nc(C(C)(C)C)ns1 [Compound 48] | 100% |

Same assay, conditions: Anopheles stephensi; test compound 20 ppm, without TFNA-AM, after 48 hours; read-out: mortality % 48, without TFNA-AM

| SMILES | mortality at 20 ppm |
| --- | --- |
| CN/C(=N\[N+](=O)[O-])NCc1cnc(Cl)s1 [Clothianidin] | 20% |
| CO/C=C(/C(=O)OC)c1ccccc1Oc1nc(C(C)(C)C)ns1 [Compound 48] | 100% |

Same assay, conditions: Anopheles stephensi; test compound 20 ppm, without TFNA-AM, knockdown after 1 hour; read-out: Knock Down, without TFNA-AM

| SMILES | pest or weed control at 20 ppm |
| --- | --- |
| CN/C(=N\[N+](=O)[O-])NCc1cnc(Cl)s1 [Clothianidin] | 0% |
| CO/C=C(/C(=O)OC)c1ccccc1Oc1nc(C(C)(C)C)ns1 [Compound 48] | 100% |

Same assay, conditions: Anopheles stephensi; test compound 200 ppm, without TFNA-AM, after 24 hours; read-out: mortality % 24, without TFNA-AM

| SMILES | mortality at 200 ppm |
| --- | --- |
| CN/C(=N\[N+](=O)[O-])NCc1cnc(Cl)s1 [Clothianidin] | 0% |
| CO/C=C(/C(=O)OC)c1ccccc1Oc1nc(C(C)(C)C)ns1 [Compound 48] | 100% |

Same assay, conditions: Anopheles stephensi; test compound 200 ppm, without TFNA-AM, after 48 hours; read-out: mortality % 48, without TFNA-AM

| SMILES | mortality at 200 ppm |
| --- | --- |
| CN/C(=N\[N+](=O)[O-])NCc1cnc(Cl)s1 [Clothianidin] | 20% |
| CO/C=C(/C(=O)OC)c1ccccc1Oc1nc(C(C)(C)C)ns1 [Compound 48] | 100% |

Same assay, conditions: Anopheles stephensi; test compound 200 ppm, without TFNA-AM, knockdown after 1 hour, adult females; read-out: Knock Down, without TFNA-AM

| SMILES | pest or weed control at 200 ppm |
| --- | --- |
| CN/C(=N\[N+](=O)[O-])NCc1cnc(Cl)s1 [Clothianidin] | 0% |
| CO/C=C(/C(=O)OC)c1ccccc1Oc1nc(C(C)(C)C)ns1 [Compound 48] | 100% |

Same assay, conditions: test compound 0.2 ppm plus 2 ppm TFNA-AM, after 24 hours

| SMILES | mortality % 24, with TFNA-AM |
| --- | --- |
| CO/C=C(/C(=O)OC)c1ccccc1Oc1nc(C(C)(C)C)ns1 [Compound 48] | 80% |

Same assay, conditions: test compound 0.2 ppm plus 2 ppm TFNA-AM, after 48 hours

| SMILES | mortality % 48, with TFNA-AM |
| --- | --- |
| CN/C(=N\[N+](=O)[O-])NCc1cnc(Cl)s1 [Clothianidin] | 0% |
| CO/C=C(/C(=O)OC)c1ccccc1Oc1nc(C(C)(C)C)ns1 [Compound 48] | 100% |

Same assay, conditions: test compound 0.2 ppm plus 2 ppm TFNA-AM, knockdown after 1 hour

| SMILES | Knock Down, with TFNA-AM |
| --- | --- |
| CN/C(=N\[N+](=O)[O-])NCc1cnc(Cl)s1 [Clothianidin] | 100% |
| CO/C=C(/C(=O)OC)c1ccccc1Oc1nc(C(C)(C)C)ns1 [Compound 48] | 100% |

Same assay, conditions: test compound 2 ppm plus 2 ppm TFNA-AM, after 24 hours

| SMILES | mortality % 24, with TFNA-AM |
| --- | --- |
| CN/C(=N\[N+](=O)[O-])NCc1cnc(Cl)s1 [Clothianidin] | 100% |
| CO/C=C(/C(=O)OC)c1ccccc1Oc1nc(C(C)(C)C)ns1 [Compound 48] | 100% |

Same assay, conditions: test compound 2 ppm plus 2 ppm TFNA-AM, after 48 hours

| SMILES | mortality % 48, with TFNA-AM |
| --- | --- |
| CN/C(=N\[N+](=O)[O-])NCc1cnc(Cl)s1 [Clothianidin] | 100% |
| CO/C=C(/C(=O)OC)c1ccccc1Oc1nc(C(C)(C)C)ns1 [Compound 48] | 100% |

Same assay, conditions: test compound 2 ppm plus 2 ppm TFNA-AM, knockdown after 1 hour

| SMILES | Knock Down, with TFNA-AM |
| --- | --- |
| CN/C(=N\[N+](=O)[O-])NCc1cnc(Cl)s1 [Clothianidin] | 100% |
| CO/C=C(/C(=O)OC)c1ccccc1Oc1nc(C(C)(C)C)ns1 [Compound 48] | 100% |

Same assay, conditions: test compound 20 ppm plus 2 ppm TFNA-AM, after 24 hours

| SMILES | mortality % 24, with TFNA-AM |
| --- | --- |
| CN/C(=N\[N+](=O)[O-])NCc1cnc(Cl)s1 [Clothianidin] | 100% |
| CO/C=C(/C(=O)OC)c1ccccc1Oc1nc(C(C)(C)C)ns1 [Compound 48] | 100% |

Same assay, conditions: test compound 20 ppm plus 2 ppm TFNA-AM, after 48 hours

| SMILES | mortality % 48, with TFNA-AM |
| --- | --- |
| CN/C(=N\[N+](=O)[O-])NCc1cnc(Cl)s1 [Clothianidin] | 100% |
| CO/C=C(/C(=O)OC)c1ccccc1Oc1nc(C(C)(C)C)ns1 [Compound 48] | 100% |

Same assay, conditions: test compound 20 ppm plus 2 ppm TFNA-AM, knockdown after 1 hour

| SMILES | Knock Down, with TFNA-AM |
| --- | --- |
| CN/C(=N\[N+](=O)[O-])NCc1cnc(Cl)s1 [Clothianidin] | 100% |
| CO/C=C(/C(=O)OC)c1ccccc1Oc1nc(C(C)(C)C)ns1 [Compound 48] | 100% |

Same assay, conditions: test compound 200 ppm plus 2 ppm TFNA-AM, after 24 hours

| SMILES | mortality % 24, with TFNA-AM |
| --- | --- |
| CN/C(=N\[N+](=O)[O-])NCc1cnc(Cl)s1 [Clothianidin] | 100% |
| CO/C=C(/C(=O)OC)c1ccccc1Oc1nc(C(C)(C)C)ns1 [Compound 48] | 100% |

Same assay, conditions: test compound 200 ppm plus 2 ppm TFNA-AM, after 48 hours

| SMILES | mortality % 48, with TFNA-AM |
| --- | --- |
| CN/C(=N\[N+](=O)[O-])NCc1cnc(Cl)s1 [Clothianidin] | 100% |
| CO/C=C(/C(=O)OC)c1ccccc1Oc1nc(C(C)(C)C)ns1 [Compound 48] | 100% |

Same assay, conditions: test compound 200 ppm plus 2 ppm TFNA-AM, knockdown after 1 hour

| SMILES | Knock Down, with TFNA-AM |
| --- | --- |
| CN/C(=N\[N+](=O)[O-])NCc1cnc(Cl)s1 [Clothianidin] | 100% |
| CO/C=C(/C(=O)OC)c1ccccc1Oc1nc(C(C)(C)C)ns1 [Compound 48] | 100% |

Reference: US20260206755A1, “COMPOUNDS AND COMPOSITIONS HAVING KNOCK-DOWN OR BLOOD FEED INHIBITION ACTIVITY AGAINST INSECT PESTS” (priority 2017, published 2026)
